The text below walks through data of patent publication US4232150A, “Oligosaccharide precursors to substituted O-α-D and O-β-D-multigalactopyranosyl and glucopyranosyl 1→4 and 1→6 galactopyranosyl 1→6α-D-glucopyranoses” (American Cyanamid Company, priority 1979, dated 1980).

Structures can show the parent of a compound that is named as a salt.

One assay relates to complement system. Conditions: cited from earlier work.
In assay [1] the test system is hereditary angioneurotic edema. Conditions: in vivo; cited from earlier work.
Another assay has as its target T1, activated human C1 (Homo sapiens, UniProt P09871).
T1 construct: functional test of fluid-phase human C2 destruction in presence of C4
Put plainly: Test Code 026 (C1 inhibitor). Type of assay: biochemical. Conditions: serial twofold dilution assay; higher well number indicates higher activity. The text has this: (§1) An active inhibitor protects C2 from C1 and C4; (ii) Test Cod3 035 (3-C9 inhibitor)--This test determines the ability of the late components of human complement (C3-C9) to lyse EAC 142 in the presence of appropriate dilutions of the test compound. An active inhibitor protects EAC 142 from lysis by human C3-C9; (iii) Test Code 036 (C-Shunt inhibitor)--In this test human erythrocytes rendered fragile are lysed in autologous serum via the shunt pathway activated by cobra venom factor in the presence of appropriate dilutions of the test compound. Inhibition of the shunt pathway results in failure of lysis; (iv) Forssman Vasculitis Test--Here, the well known complement dependent lesion, Forssman vasculitis, is produced in guinea pigs by intradermal injection of rabbit anti-Forssman antiserum. The lesion is measured in terms of diameter, edema and hemorrhage and the extent to which a combined index of these is inhibited by prior intraperitoneal injection of the test compound at 200 mg/kg is then reported, unless otherwise stated; (v) Forssman Shock Test--Lethal shock is produced in guinea pigs by an i.v. injection of anti-Forssman antiserum and the harmonic mean death time of treated guinea pigs is compared with that of simultaneous controls; (vi) Complement Level Reduction Test--In this test, the above dosed guinea pigs, or others, are bled for serum and the complement level is determined in undiluted serum by the capillary tube method of U.S. Pat. No. 3,876,376 and compared to undosed control guinea pigs; (vii) Cap 50 Test--Here, appropriate amounts of the test compound are added to a pool of guinea pig serum in vitro, after which the undiluted serum capillary tube assay referred to above is run. The concentration of compound inhibiting 50% is reported;
(§2) **Activity in wells, a serial dilution assay; higher well number indicate
(§3) higher activity. The serial dilutions are twofold

Assay [2] relates to late components of human complement (C3-C9). Kind of assay: Test Code 035 (C3-C9 inhibitor; C-Late), lysis of EAC 142. To be noted: serial twofold dilution assay; higher well number indicates higher activity. Type of assay: cell-based.
Text: as §1, §2, §3

The subject of assay [3] is shunt pathway activated by cobra venom factor. Put plainly: Test Code 036 (C-Shunt inhibitor), lysis of human erythrocytes by cobra venom factor. Conditions: serial twofold dilution assay; higher well number indicates higher activity. Type of assay: cell-based.
Text: as §1, §2, §3

The next assay relates to human serum complement. Conditions: in vitro and in vivo; cited from earlier work.

T1 sequence (P09871 16-688): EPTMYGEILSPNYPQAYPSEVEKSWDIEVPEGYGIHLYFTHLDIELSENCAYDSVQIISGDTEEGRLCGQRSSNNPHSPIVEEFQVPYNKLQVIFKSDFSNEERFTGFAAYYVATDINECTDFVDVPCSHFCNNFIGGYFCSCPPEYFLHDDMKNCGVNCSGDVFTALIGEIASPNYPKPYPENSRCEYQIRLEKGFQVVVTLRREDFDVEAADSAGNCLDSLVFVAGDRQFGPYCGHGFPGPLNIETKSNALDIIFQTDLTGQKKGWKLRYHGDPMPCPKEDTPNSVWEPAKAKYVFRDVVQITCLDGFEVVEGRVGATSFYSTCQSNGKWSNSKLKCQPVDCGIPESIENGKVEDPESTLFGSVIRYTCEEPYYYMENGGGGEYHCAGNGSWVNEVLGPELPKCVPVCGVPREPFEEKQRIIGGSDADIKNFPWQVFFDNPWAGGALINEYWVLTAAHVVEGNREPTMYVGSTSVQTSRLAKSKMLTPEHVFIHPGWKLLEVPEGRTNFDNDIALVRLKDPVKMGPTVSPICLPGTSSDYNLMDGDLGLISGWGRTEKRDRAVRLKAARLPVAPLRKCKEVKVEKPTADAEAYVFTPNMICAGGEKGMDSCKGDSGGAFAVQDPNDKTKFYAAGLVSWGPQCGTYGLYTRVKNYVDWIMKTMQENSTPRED
T1 sequence (P00736 18-705 partner): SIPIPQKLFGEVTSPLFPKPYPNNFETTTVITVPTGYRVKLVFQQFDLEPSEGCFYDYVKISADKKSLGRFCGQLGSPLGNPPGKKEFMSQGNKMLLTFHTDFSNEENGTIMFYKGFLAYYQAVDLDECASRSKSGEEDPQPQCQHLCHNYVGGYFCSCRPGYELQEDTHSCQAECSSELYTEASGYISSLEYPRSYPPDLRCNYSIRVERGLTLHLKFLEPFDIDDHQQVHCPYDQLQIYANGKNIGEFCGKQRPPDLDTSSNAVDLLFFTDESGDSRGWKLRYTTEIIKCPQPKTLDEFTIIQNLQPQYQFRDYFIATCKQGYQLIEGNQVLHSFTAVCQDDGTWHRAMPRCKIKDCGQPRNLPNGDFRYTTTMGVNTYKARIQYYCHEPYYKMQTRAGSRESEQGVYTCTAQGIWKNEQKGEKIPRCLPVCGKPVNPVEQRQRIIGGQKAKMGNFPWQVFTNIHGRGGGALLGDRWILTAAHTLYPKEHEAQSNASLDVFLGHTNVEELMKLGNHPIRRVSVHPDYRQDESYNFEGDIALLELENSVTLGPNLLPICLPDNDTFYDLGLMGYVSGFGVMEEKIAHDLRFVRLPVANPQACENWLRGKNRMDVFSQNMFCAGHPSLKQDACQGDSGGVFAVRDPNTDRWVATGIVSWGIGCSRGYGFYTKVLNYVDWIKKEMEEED
T1 sequence (P02745 23-245 partner): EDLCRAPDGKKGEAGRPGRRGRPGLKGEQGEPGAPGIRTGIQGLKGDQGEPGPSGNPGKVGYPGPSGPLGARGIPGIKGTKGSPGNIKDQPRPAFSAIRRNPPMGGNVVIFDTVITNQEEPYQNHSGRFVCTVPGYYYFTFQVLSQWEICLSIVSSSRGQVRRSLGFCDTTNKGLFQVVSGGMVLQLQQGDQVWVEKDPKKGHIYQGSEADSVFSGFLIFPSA
T1 sequence (P02746 28-253 partner): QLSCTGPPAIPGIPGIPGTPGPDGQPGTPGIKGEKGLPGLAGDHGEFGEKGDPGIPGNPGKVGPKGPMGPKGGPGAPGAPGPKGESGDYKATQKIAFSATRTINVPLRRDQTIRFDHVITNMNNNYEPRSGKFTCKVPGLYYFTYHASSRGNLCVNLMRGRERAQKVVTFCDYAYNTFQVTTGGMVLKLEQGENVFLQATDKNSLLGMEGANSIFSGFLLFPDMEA
T1 sequence (P02747 29-245 partner): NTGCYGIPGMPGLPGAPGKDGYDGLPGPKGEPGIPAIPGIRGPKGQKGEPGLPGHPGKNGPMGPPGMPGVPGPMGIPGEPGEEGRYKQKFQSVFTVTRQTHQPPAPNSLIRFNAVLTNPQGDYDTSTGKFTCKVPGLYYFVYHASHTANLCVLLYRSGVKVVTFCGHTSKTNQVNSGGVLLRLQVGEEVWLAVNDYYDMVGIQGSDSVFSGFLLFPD

For `Nc1ccc2cc(S(=O)(=O)[O-])cc(O)c2c1N=Nc1ccc(NC(=O)Nc2ccc(N=Nc3c(N)ccc4cc(S(=O)(=O)[O-])cc(O)c34)c(S(=O)(=O)[O-])c2)cc1S(=O)(=O)[O-].[Na+].[Na+].[Na+].[Na+]` [chlorazol fast pink, 3,3'-ureylenebis[6-(2-amino-8-hydroxy-6-sulfo-1-naphthylazo)benzenesulfonic acid], tetrasodium salt], in the assay with complement system, the anticomplementary effect result was “anticomplementary effect”. In the case of `NCCCCCC(=O)O` [epsilon-aminocaproic acid], the “success in the treatment of hereditary angioneurotic edema” value in assay [1] is “used with success in the treatment of hereditary angioneurotic edema”. With `O=S(=O)(O)OC[C@H]1O[C@H](OC[C@H]2O[C@@H](OC[C@H]3O[C@H](OC[C@H]4O[C@H](OS(=O)(=O)O)[C@H](OS(=O)(=O)O)[C@@H](OS(=O)(=O)O)[C@@H]4OS(=O)(=O)O)[C@H](OS(=O)(=O)O)[C@@H](OS(=O)(=O)O)[C@H]3OS(=O)(=O)O)[C@H](OS(=O)(=O)O)[C@@H](OS(=O)(=O)O)[C@@H]2OS(=O)(=O)O)[C@H](OS(=O)(=O)O)[C@@H](OS(=O)(=O)O)[C@H]1OS(=O)(=O)O` [gal →1α,6 glc →1β,6 gal →1α,6 tetradecakis (H-sulfate), tetr] [Gal 1α,6 glc 1β,6 gal 1α,6 glc tetradecakis (H-sulfate), tetradecasalt with trimethylamine], at activated human C1, the “C1 026* Wells” value is listed as “+9 Wells”. Also, the “C-Late 035* Wells” value in assay [2] is “+1 Wells”. In assay [3], the “Shunt Inhibition 036* Wells” value is given as “+5 Wells”. As to `O=S(=O)(O)OC[C@H]1O[C@H](OC[C@H]2O[C@@H](OC[C@H]3O[C@H](OC[C@H]4O[C@H](OS(=O)(=O)O)[C@H](OS(=O)(=O)O)[C@@H](OS(=O)(=O)O)[C@@H]4OS(=O)(=O)O)[C@H](OS(=O)(=O)O)[C@@H](OS(=O)(=O)O)[C@H]3OS(=O)(=O)O)[C@H](OS(=O)(=O)O)[C@@H](OS(=O)(=O)O)[C@@H]2OS(=O)(=O)O)[C@H](OS(=O)(=O)O)[C@@H](OS(=O)(=O)O)[C@H]1OS(=O)(=O)O` [gal →1α,6 glc → 1β,6 gal →1α,6 glc tetradecakis (H-sulfate),] [Gal 1α,6 glc 1β,6 gal 1α,6 glc tetradecakis (H-sulfate), tetradecasodium salt], the “C1 026* Wells” value at activated human C1 is given as “+9 Wells”. The “C-Late 035* Wells” value in assay [2] is listed as “+1 Wells”. Moreover, the “Shunt Inhibition 036* Wells” value in assay [3] is “+6 Wells”. With `NC[C@H]1CC[C@H](C(=O)O)CC1` [tranexamic acid], the “success in the treatment of hereditary angioneurotic edema” value in assay [1] is recorded as “used with success in the treatment of hereditary angioneurotic edema”. With heparin, in the assay on complement system, the anticomplementary effect entry is listed as “anticomplementary effect”. Regarding pentosan-polysulfoester, the “anticomplementary activity on human serum, as judged by the reduction in total hemolytic complement activity” value in the assay with human serum complement is “anticomplementary activity on human serum, both in vitro and in vivo”.
